Assay results reported in patent US6545038B1, “Heterocyclic metalloprotease inhibitors” (The Procter & Gamble Company, priority 1996, dated 2003).

Assay: Method of use Example B: daily capsule in a subject suffering from osteoarthritis
Type: in vivo
Details: human male, capsule containing 70 mg daily for 5 years
Protocol: A human subject weighing 90 kg (198 lbs), suffering from osteoarthritis, is treated by a method of this invention. Specifically, for 5 years, a capsule containing 70 mg of Example 3 is administered daily to said subject.

For `COc1ccc(S(=O)(=O)N2CCCSC(C)(C)[C@@H]2C(=O)N(C)O)cc1` [Example 3, 3(S)-N-Hydroxy-N-methyl-2,2-dimethyl-4N-[(4-methoxyphenyl)sulfonyl]-thiazepine-3-carboxamide], the “erosion/fibrillation of the articular cartilage, examined via orthoscopy” value was “no further advancement of erosion/fibrillation of the articular cartilage”.
